According to patent publication US4778511A, “Fluorine-containing N-sulphenylated indazoles for use as bactericides and fungicides” (Bayer Aktiengesellschaft, priority 1985, dated 1988):
≈ marks a conversion by molar mass, not a printed value.

What was measured:
Chaelomium globosum = assay: MIC against fungi (agar), Chaetomium globosum; type: cell-based; conditions: 336 h, beer wort/peptone agar, 2 weeks at 28° C., 60 to 70% relative humidity
Description: (§1) Active compounds, according to the invention, are added in concentrations of 0.1 mg/l to 5000 mg/l, to an agar prepared from beer wort and peptone. The MIC is determined after the agar has been stored for 2 weeks at 28° C. and 60 to 70% relative atmospheric humidity. MlC is the lowest concentration of active compound at which the species of microbe used undergoes no growth at all; it is shown in the table below.

Aspergillus niger = assay: MIC against fungi (agar), Aspergillus niger; type: cell-based; conditions: 336 h, beer wort/peptone agar, 2 weeks at 28° C., 60 to 70% relative humidity
Description: as §1

Penicillium glaucum = assay: MIC against fungi (agar), Penicillium glaucum; type: cell-based; conditions: 336 h, beer wort/peptone agar, 2 weeks at 28° C., 60 to 70% relative humidity
Description: as §1

Sclerophoma pityophila = assay: MIC against fungi (agar), Sclerophoma pityophila; type: cell-based; conditions: Sydowia polyspora, 336 h, beer wort/peptone agar, 2 weeks at 28° C., 60 to 70% relative humidity
Description: as §1

Cladosporium = assay: MIC against fungi (agar), Cladosporium; type: cell-based; conditions: 336 h, beer wort/peptone agar, 2 weeks at 28° C., 60 to 70% relative humidity
Description: as §1

Allernaria tenuis = assay: MIC against fungi (agar), Alternaria tenuis; type: cell-based; conditions: Alternaria alternata, 336 h, beer wort/peptone agar, 2 weeks at 28° C., 60 to 70% relative humidity
Description: as §1

Aureobasidium pullulans = assay: MIC against fungi (agar), Aureobasidium pullulans; type: cell-based; conditions: 336 h, beer wort/peptone agar, 2 weeks at 28° C., 60 to 70% relative humidity
Description: as §1

Lentinus tigrinus = assay: MIC against fungi (agar), Lentinus tigrinus; type: cell-based; conditions: 336 h, beer wort/peptone agar, 2 weeks at 28° C., 60 to 70% relative humidity
Description: as §1

[1] = tested on: Drechslera graminea (syn. Helminthosporium gramineum); assay: Drechslera graminea test (barley)/seed treatment; type: in vivo; conditions: application rate 500 mg/kg of seed, approx. 3 weeks after sowing, undressed 23.4
Description: Drechslera graminea test (barley)/seed treatment (syn. Helminthosporium gramineum)
The active compounds are applied in the form of dry dressing agents. They are formulated by diluting the particular active compound with ground minerals to give a finely powdered mixture, which ensures uniform distribution on the surface of the seed.
The infested seed is dressed by shaking it for 3 minutes with the dressing agent in a closed glass jar.
Embedded in sieved, moist standard soil, the seed is exposed to a temperature of 4° C. for 10 days in closed Petri dishes in a refrigerator. This initiates the germination of the barley sand, if appropriate, also that of the fungus spores. The pre-germinated barley is then sown in 2 lots of 50 grains 3 cm deep in standard soil and is cultivated in seed boxes which are exposed to light for 15 hours a day in a greenhouse at a temperature of approx. 18° C.
The plants are evaluated for symptoms of stripe disease approx. 3 weeks after sowing.

Trichoderma viride = assay: MIC against fungi (agar), Trichoderma viride; type: cell-based; conditions: 336 h, beer wort/peptone agar, 2 weeks at 28° C., 60 to 70% relative humidity
Description: as §1

slime organisms = assay: Action against slime organisms (MIC); type: cell-based; conditions: 504 h; slime organisms approx. 10^6 microbes/ml, Allen's nutrient solution with 1% caprolactam, room temperature, 3 weeks
Description: Substances according to the invention are used in concentrations of 0.1 to 100 mg/l in each case, dissolved in a little acetone, in Allen's nutrient solution (Arch. Mikrobiol. 17, 34 to 53 (1952)) containing 0.2 g of ammonium chloride, 4.0 g of sodium nitrate, 1.0 g of dipotassium hydrogenphosphate, 0.2 g of calcium chloride, 2.05 g of magnesium sulphate and 0.02 g of iron chloride, together with 1% of caprolactam, in 4 l of sterile water. Shortly beforehand, the nutrient solution is infested with slime organisms (approx. 10^6 microbes/ml), isolated from the spinning water circulation used in the production of polyamide.

Polyporus versicolor = assay: MIC against fungi (agar), Polyporus versicolor; type: cell-based; conditions: Trametes versicolor, 336 h, beer wort/peptone agar, 2 weeks at 28° C., 60 to 70% relative humidity
Description: as §1

SMILES	MIC (Chaelomium globosum) [µg/mL]	MIC (Aspergillus niger) [µg/mL]	MIC (Penicillium glaucum) [µg/mL]	MIC (Sclerophoma pityophila) [µg/mL]	MIC (Cladosporium) [µg/mL]	MIC (Allernaria tenuis) [µg/mL]	MIC (Aureobasidium pullulans) [µg/mL]	MIC (Lentinus tigrinus) [µg/mL]	Diseased plants as % of all the emerged plants [1] [%]	MIC (Trichoderma viride) [µg/mL]	MIC (slime organisms) [µg/mL]	MIC (Polyporus versicolor) [µg/mL]
Fc1cccc2c1cnn2SC(F)(Cl)Cl [1-Dichlorofluoromethylsulphenyl-4-fluoroindazole, reference compound]	200 (≈ 743 µM)	500 (≈ 1860 µM)	200 (≈ 743 µM)	–	–	–	–	–	–	–	–	–
FC(F)(F)Oc1ccc2cnn(SC(Cl)(Cl)Cl)c2c1 [Example 1, 6-Trifluoromethoxy-1-trichloromethylsulphenylindazole]	75 (≈ 213 µM)	20 (≈ 56.9 µM)	20 (≈ 56.9 µM)	75 (≈ 213 µM)	20 (≈ 56.9 µM)	150 (≈ 427 µM)	350 (≈ 996 µM)	75 (≈ 213 µM)	–	–	–	–
FC(F)(F)Oc1ccc2cnn(SC(F)(Cl)Cl)c2c1 [Example 2, 6-Trifluoromethoxy-1-dichlorofluoromethylsulphenylindazole]	2 (≈ 5.97 µM)	20 (≈ 59.7 µM)	2 (≈ 5.97 µM)	35 (≈ 104 µM)	20 (≈ 59.7 µM)	75 (≈ 224 µM)	150 (≈ 448 µM)	20 (≈ 59.7 µM)	4.1	–	–	–
FC1Oc2cc3c(cnn3SC(F)(Cl)Cl)cc2OC1(F)F (centres unmarked) [Example 4]	100 (≈ 275 µM)	150 (≈ 413 µM)	100 (≈ 275 µM)	–	–	–	–	–	–	–	–	–
FC(F)(F)Oc1ccc2c(cnn2SC(F)(Cl)Cl)c1 [Example 5]	20 (≈ 59.7 µM)	20 (≈ 59.7 µM)	20 (≈ 59.7 µM)	0.75 (≈ 2.24 µM)	–	20 (≈ 59.7 µM)	20 (≈ 59.7 µM)	0.1 (≈ 0.298 µM)	–	50 (≈ 149 µM)	5 to 10 (≈ 14.9 to 29.8 µM)	2 (≈ 5.97 µM)
Cc1cc(C(F)(F)F)c2cnn(SC(F)(Cl)Cl)c2c1Cl [Example 8]	< 20	500 (≈ 1360 µM)	< 20	–	–	–	–	–	–	–	–	–
FC(F)(F)Oc1ccc2c(cnn2SC(F)(Cl)Cl)c1Cl [Example 12]	20 (≈ 54.1 µM)	50 (≈ 135 µM)	20 (≈ 54.1 µM)	200 (≈ 541 µM)	20 (≈ 54.1 µM)	200 (≈ 541 µM)	500 (≈ 1350 µM)	7.5 (≈ 20.3 µM)	–	–	–	–
Cc1cc2cnn(SC(F)(Cl)Cl)c2c(C)c1C(F)(F)F [Example 15]	< 20	50 (≈ 144 µM)	< 20	–	–	–	–	–	–	–	–	–
FC(F)(F)Sc1ccc2cnn(SC(F)(Cl)Cl)c2c1 [Example 16]	< 20	< 20	< 20	–	–	–	–	–	–	–	–	–
FC(Cl)(Cl)Sn1ncc2c(Cl)c(Cl)c(C(F)(F)F)cc21 [Example 17]	< 20	500 (≈ 1290 µM)	< 20	–	–	–	–	–	–	–	–	–
FC(F)(F)Sc1ccc2c(cnn2SC(F)(Cl)Cl)c1 [Example 18]	< 20	< 20	< 20	–	–	–	–	–	–	–	–	–
Cc1cc(F)cc2c1cnn2SC(F)(Cl)Cl [Example 19]	10 (≈ 35.3 µM)	10 (≈ 35.3 µM)	20 (≈ 70.6 µM)	15 (≈ 53 µM)	5 (≈ 17.7 µM)	15 (≈ 53 µM)	50 (≈ 177 µM)	0.5 (≈ 1.77 µM)	–	500 (≈ 1770 µM)	–	–
